In patent US10723699B2 (Hyundai Pharm Co., Ltd., priority 2015, dated 2020) one finds EC50 data, which are given here for 24 compounds.

Where two headings read alike, the source gives them in different places.

This experiment deals with T1, G protein-coupled receptor 119 (GPR-119) (Mesocricetus auratus, UniProt A0A1U8CD06).
T1 construct: hamster-derived β-cells containing G protein-coupled receptor 119 (GPR-119), HIT-T15 cells; host or cells: HIT-T15 (hamster pancreatic β-cells)
T1 sequence (A0A1U8CD06 1-334): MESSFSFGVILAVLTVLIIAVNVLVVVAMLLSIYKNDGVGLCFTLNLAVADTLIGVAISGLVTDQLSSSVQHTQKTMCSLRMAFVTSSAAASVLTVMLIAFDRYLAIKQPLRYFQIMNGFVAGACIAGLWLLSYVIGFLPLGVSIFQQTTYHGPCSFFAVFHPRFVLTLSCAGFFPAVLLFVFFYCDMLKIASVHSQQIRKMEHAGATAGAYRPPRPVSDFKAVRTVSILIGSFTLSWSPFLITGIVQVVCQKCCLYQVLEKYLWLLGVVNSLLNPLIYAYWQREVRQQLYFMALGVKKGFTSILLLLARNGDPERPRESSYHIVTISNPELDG
In words: cAMP activity in HIT-T15 cells (cAMP dynamic kit, FRET). The class given is cell-based, hamster. Here is the method:
To check whether the cyclohexene derivatives according to the present invention activate cyclic adenosine monophosphate (cAMP), experiments were carried out, as follows.
The HIT-T15 cells were plated on a 96-well plate at 60,000 cells per well. On the next day of plating, the cells were treated with a varying concentration of each of the example compounds according to the present invention, and incubated at 37° C. for an hour. In this case, each of the treated compounds was used at six concentrations, ranging from 0.0032 to 10 μM, to treat the cells.
The cyclic adenosine monophosphate (cAMP) activity was measured according to the manufacturer's instruction using a cAMP dynamic kit commercially available from Cis Bio Inc. (Bedford, Mass.). The cells were lysed, and a level of cAMP was determined by a competitive immunoassay using D2-labeled cAMP and a cryptate-labeled anti-cAMP antibody. Fluorescence was read in Flex Station (Molecular Devices). […] Unlabeled cAMP in the cell lysate competed with the D2-labeled cAMP against the cryptate-labeled antibody. Since a decrease in the measured intensity of the FRET signals represents a level of cAMP in the cells, the cAMP activities of the compounds are calculated as a change in FRET signals by adjusting an amount of dimethyl sulfoxide (DMSO).

Where [1] appears, read: 1 hour at 37° C., six concentrations 0.0032 to 10 μM, read-out: EC50.

For the compound `CCc1cnc(N2CCC(COc3ccc(C4=CCC(C(=O)N5CCSCC5)CC4)c(F)c3)CC2)nc1` (stereo not drawn) [Example 423, (4-(4-((1-(5-ethylpyrimidin-2-yl)piperidin-4-yl)methoxy)-2-fluorophenyl)cyclohex-3-enyl)(thiomorpholino)methanone], the EC50 is 19 nM under setting [1] and at most 50 nM (Table 2, read-out: EC50 value). Turning to `CC(C)c1noc(N2CCC(COc3ccc(C4=CCC(C(=O)NC5CC5)CC4)cc3F)CC2)n1` (stereo not drawn) [Example 363, N-cyclopropyl-4-(3-fluoro-4-((1-(3-isopropyl-1,2,4-oxadiazol-5-yl)piperidin-4-yl)methoxy)phenyl)cyclohex-3-enecarboxamide], under setting [1], the EC50 amounted to 110 nM.

Regarding `CCc1cnc(N2CCC(COc3ccc(C4=CCC(C(=O)N5CCC(F)(F)CC5)CC4)cc3F)CC2)nc1` (stereo not drawn) [Example 457, (4,4-difluoropiperidin-1-yl)(4-(4-((1-(5-ethylpyrimidin-2-yl)piperidin-4-yl)methoxy)-3-fluorophenyl)cyclohex-3-enyl)methanone], the concentration giving a half-maximal response (EC50) under setting [1] was found to be 9.8 nM and the EC50 (Table 2, read-out: EC50 value) was at most 50 nM. Turning to `CCc1cnc(N2CCC(COc3ccc(C4=CCC(C(=O)N5CCN(C)CC5)CC4)cc3F)CC2)nc1` (stereo not drawn) [Example 384, (4-(4-((1-(5-ethylpyrimidin-2-yl)piperidin-4-yl)methoxy)-3-fluorophenyl)cyclohex-3-enyl)(4-methylpiperazin-1-yl)methanone], the concentration for a half-maximal effect (EC50) under setting [1] is 100 nM. Consider `CCc1cnc(N2CCC(COc3ccc(C4=CCC(C(=O)NC5CC5)CC4)cc3F)CC2)nc1` (stereo not drawn) [Example 302, N-cyclopropyl-4-(4-((1-(5-ethylpyrimidin-2-yl)piperidin-4-yl)methoxy)-3-fluorophenyl)cyclohex-3-enecarboxamide], for which, under setting [1], the concentration giving a half-maximal response (EC50) was found to be 110 nM.

On to `CC(C)c1noc(N2CCC(COc3ccc(C4=CCC(C(=O)N5CCOCC5)CC4)c(F)c3)CC2)n1` (stereo not drawn) [Example 448, (4-(2-fluoro-4-((1-(3-isopropyl-1,2,4-oxadiazol-5-yl)piperidin-4-yl)methoxy)phenyl)cyclohex-3-enyl)(morpholino)methanone], for which the 50% effective concentration (EC50) was 25 nM under setting [1] and at most 50 nM (Table 2, read-out: EC50 value). For `CC(C)c1noc(N2CCC(COc3ccc(C4=CCC(C(=O)N5CCN(CCCO)CC5)CC4)cc3F)CC2)n1` (stereo not drawn) [Example 347, (4-(3-fluoro-4-((1-(3-isopropyl-1,2,4-oxadiazol-5-yl)piperidin-4-yl)methoxy)phenyl)cyclohex-3-enyl)(4-(3-hydroxypropyl)piperazin-1-yl)methanone], under setting [1], the EC50 was found to be 55 nM. As for `CC(C)(C)OC(=O)N1CCC(COc2ccc(C3=CCC(C(=O)N4CCC(O)CC4)CC3)nc2)CC1` (stereo not drawn) [Example 310, tert-butyl 4-((6-(4-(4-hydroxypiperidine-1-carbonyl)cyclohex-1-enyl)pyridin-3-yloxy)methyl)piperidine-1-carboxylate], the EC50 by setting is: under setting [1], 33 nM; (Table 2, read-out: EC50 value) at most 50 nM. As to `O=C(OC(C(F)(F)F)C(F)(F)F)N1CCC(COc2ccc(C3=CCC(C(=O)N4CCCC4)CC3)cc2F)CC1` (stereo not drawn) [Example 405, 1,1,1,3,3,3-hexafluoropropan-2-yl 4-((2-fluoro-4-(4-(pyrrolidine-1-carbonyl)cyclohex-1-enyl)phenoxy)methyl)piperidine-1-carboxylate], under setting [1], the EC50 was 59 nM. As to `CC(C)c1noc(N2CCC(COc3ccc(C4=CCC(C(=O)N5CCNCC5)CC4)cc3F)CC2)n1` (stereo not drawn) [Example 381, (4-(3-fluoro-4-((1-(3-isopropyl-1,2,4-oxadiazol-5-yl)piperidin-4-yl)methoxy)phenyl)cyclohex-3-enyl)(piperazin-1-yl)methanone], under setting [1], the EC50 was determined as 110 nM.

Regarding `O=C(NCCO)C1CC=C(c2ccc(OCC3CCN(c4ncc(Br)cn4)CC3)cc2)CC1` (stereo not drawn) [Example 357, 4-(4-((1-(5-bromopyrimidin-2-yl)piperidin-4-yl)methoxy)phenyl)-N-(2-hydroxyethyl)cyclohex-3-enecarboxamide], the EC50 under setting [1] was 150 nM. Same read-out and setting: the result for `Cn1nnnc1N1CCC(COc2ccc(C3=CCC(C(=O)N4CCCC4)CC3)cc2F)CC1` (stereo not drawn) [Example 420, (4-(3-fluoro-4-((1-(1-methyl-1H-tetrazol-5-yl)piperidin-4-yl)methoxy)phenyl)cyclohex-3-enyl)(pyrrolidin-1-yl)methanone] reads 110 nM. Consider `O=C(C1CC=C(c2ccc(OCC3CCN(c4nc(C(F)(F)F)no4)CC3)c(F)c2)CC1)N1CCCC1` (stereo not drawn) [Example 435, (4-(3-fluoro-4-((1-(3-(trifluoromethyl)-1,2,4-oxadiazol-5-yl)piperidin-4-yl)methoxy)phenyl)cyclohex-3-enyl)(pyrrolidin-1-yl)methanone], for which the EC50 was 13 nM under setting [1] and at most 50 nM (Table 2, read-out: EC50 value). `CC(C)c1noc(N2CCC(COc3ccc(C4=CCC(C(=O)N5CCC(=NO)CC5)CC4)cc3)CC2)n1` (stereo not drawn) [Example 276, (4-(hydroxyimino)piperidin-1-yl)(4-(4-((1-(3-isopropyl-1,2,4-oxadiazol-5-yl)piperidin-4-yl)methoxy)phenyl)cyclohex-3-enyl)methanone]: the EC50 (Table 2, read-out: EC50 value) was at most 50 nM. For `CC(C)c1noc(N2CCC(COc3ccc(C4=CCC(C(=O)N5CCC(CCO)CC5)CC4)cn3)CC2)n1` (stereo not drawn) [Example 320, (4-(2-hydroxyethyl)piperidin-1-yl)(4-(6-((1-(3-isopropyl-1,2,4-oxadiazol-5-yl)piperidin-4-yl)methoxy)pyridin-3-yl)cyclohex-3-enyl)methanone], the EC50 under setting [1] was 53 nM.

With `CCc1cnc(N2CCC(COc3ccc(C4=CCC(C(=O)N5CC(O)C5)CC4)cc3F)CC2)nc1` (stereo not drawn) [Example 309, (4-(4-((1-(5-ethylpyrimidin-2-yl)piperidin-4-yl)methoxy)-3-fluorophenyl)cyclohex-3-enyl)(3-hydroxyazetidin-1-yl)methanone], the EC50 reads like this: under setting [1], 11 nM; (Table 2, read-out: EC50 value) at most 50 nM. As for `CCc1cnc(N2CCC(COc3ccc(C4=CCC(C(=O)N5CCOCC5)CC4)cc3F)CC2)nc1` (stereo not drawn) [Example 299, (4-(4-((1-(5-ethylpyrimidin-2-yl)piperidin-4-yl)methoxy)-3-fluorophenyl)cyclohex-3-enyl)(morpholino)methanone], the EC50 is, setting by setting: under setting [1], 12 nM; (Table 2, read-out: EC50 value) at most 50 nM. Take `CCc1cnc(N2CCC(COc3ccc(C4=CCC(C(=O)N5CCCCC5)CC4)cc3F)CC2)nc1` (stereo not drawn) [Example 292, (4-(4-((1-(5-ethylpyrimidin-2-yl)piperidin-4-yl)methoxy)-3-fluorophenyl)cyclohex-3-enyl)(piperidin-1-yl)methanone]: the EC50 by setting is: under setting [1], 12 nM; (Table 2, read-out: EC50 value) at most 50 nM.

Turning to `CCc1cnc(N2CCC(COc3ccc(C4=CCC(C(=O)N5CCN(C6CC6)CC5)CC4)cc3)CC2)nc1` (stereo not drawn) [Example 395, (4-cyclopropylpiperazin-1-yl)(4-(4-((1-(5-ethylpyrimidin-2-yl)piperidin-4-yl)methoxy)phenyl)cyclohex-3-enyl)methanone], under setting [1], the half-maximal effective concentration (EC50) was determined as 14 nM. Take `CCc1cnc(N2CCC(COc3ccc(C4=CCC(C(=O)N5CCC(C(F)(F)F)CC5)CC4)c(F)c3)CC2)nc1` (stereo not drawn) [Example 452, (4-(4-((1-(5-ethylpyrimidin-2-yl)piperidin-4-yl)methoxy)-2-fluorophenyl)cyclohex-3-enyl)(4-(trifluoromethyl)piperidin-1-yl)methanone]: the EC50 is, setting by setting: under setting [1], 18 nM; (Table 2, read-out: EC50 value) at most 50 nM. The matching figures for `CCc1cnc(N2CCC(COc3ccc(C4=CCC(C(=O)N5CCC(C#N)CC5)CC4)c(F)c3)CC2)nc1` (stereo not drawn) [Example 424, 1-(4-(4-((1-(5-ethylpyrimidin-2-yl)piperidin-4-yl)methoxy)-2-fluorophenyl)cyclohex-3-enecarbonyl)piperidine-4-carbonitrile]: 21 nM and at most 50 nM. Take `CCc1cnc(N2CCC(COc3ccc(C4=CCC(C(=O)N5CCCCC5)CC4)cc3C)CC2)nc1` (stereo not drawn) [Example 415, (4-(4-((1-(5-ethylpyrimidin-2-yl)piperidin-4-yl)methoxy)-3-methylphenyl)cyclohex-3-enyl)(piperidin-1-yl)methanone]: under setting [1], the EC50 is 55 nM. For the compound `CCc1cnc(N2CCC(COc3ccc(C4=CCC(C(=O)N5CCC(=O)CC5)CC4)cc3F)CC2)nc1` (stereo not drawn) [Example 308, 1-(4-(4-((1-(5-ethylpyrimidin-2-yl)piperidin-4-yl)methoxy)-3-fluorophenyl)cyclohex-3-enecarbonyl)piperidin-4-one], the EC50 reads like this: (EC50 (nM), 1 hour at 37° C., six concentrations 0.0032 to 10 μM) 23 nM; (EC50 value, Table 2) at most 50 nM. `CCc1cnc(N2CCC(COc3ccc(C4=CCC(C(=O)NC5CCC5)CC4)cc3F)CC2)nc1` (stereo not drawn) [Example 303, N-cyclobutyl-4-(4-((1-(5-ethylpyrimidin-2-yl)piperidin-4-yl)methoxy)-3-fluorophenyl)cyclohex-3-enecarboxamide]: the EC50 under setting [1] is 29 nM and the EC50 (Table 2, read-out: EC50 value) was at most 50 nM.
